Where two headings read alike, the source gives them in different places.

Drawing on US7834024B2, “Compositions and methods for inhibition of the JAK pathway” (Rigel Pharmaceuticals, Inc., priority 2007, dated 2010), this text covers IC50 for ten compounds.

Assay [1] deals with Ramos B-Cell Line Stimulated with IL-4 (JAK-1 and JAK-3 / Stat-6, CD23). Kind of assay: Assay for Ramos B-Cell Line Stimulated with IL-4 (CD23 upregulation, FACS). It counts as cell-based. The note with it: human Ramos B cells, compound 1 hour, IL-4 50 units/mL for 20-24 hours, anti-CD23-PE FACS, read-out: Example 2 (IC50). The essentials:
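Human Ramos B cells (5×10^4 per point, RPMI with 5% serum) pre-incubated 1 hour at 37° C with compound or DMSO, then stimulated with IL-4 at 50 units/mL final for 20-24 hours. CD23 upregulation measured by flow cytometry.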

Assay [2] relates to JAK2 (BaF3 V617F cells, UKE-1). Kind of assay: Proliferation Assay (Cell Titer-Glo, 72 hours). It counts as cell-based. The note with it: proliferation 72 hours, BaF3 V617F or UKE-1 cells, cell line not given, read-out: Example 7 (IC50). How it is done: • Dimethyl Sulfoxide (DMSO) (Sigma-Aldrich, Cat No. D2650) (Control) • Iscove's DMEM, ATCC Catalog #30-2005 • 1 M HEPES, Cellgro Catalog #25-060-Cl (100 mL) • 100 mM Sodium Pyruvate, Cellgro Catalog #25-000-Cl (100 mL) • Penicillin/Streptomycin, 10000 U/mL each, Cellgro Catalog #30-002-Cl (100 mL) • RPMI 1640 (Cellgro, Cat No. 10-040-CM) • Fetal Bovine Serum (JRH, Cat No. 12106-500M) • Donor Equine Serum, Hyclone Catalog #SH30074.02 (100 mL) • 50 μM hydrocortisone solution, Sigma Catalog #H6909-10 ml (10 mL) Culture Conditions
BaF3 V617F cells are maintained and plated in RPMI with 10% FBS. Plating density for these cells is 1×10^5 cells/mL.
UKE-1 are maintained and plated in Iscove's DMEM containing 10% FBS, 10% equine serum, 1% penicillin/streptomycin and 1 uM hydrocortisone. Plating density for these cells is 0.4×10^6 cells/mL
The cells were resuspended in a corresponding medium at a required cell density (see above). 100 μ of cell suspension was added to each well of a flat bottom 96 well white plate. The compound was serially diluted in DMSO from 5 mM in 3-fold dilutions, and then diluted 1:250 in the RPMI 1640 medium containing 5% FBS and pen/strep. 100 μL of resulting 2× compound solution was added per well in duplicate and the cells were allowed to proliferate for 72 hours at 37° C.
Proliferation was measured using Cell Titer-Glo. The substrate was thawed and allowed to come to room temperature. After removal of top 100 μL of medium from each well, 100 μL of the premixed Cell Titer-Glo reagent was added to each well. The plates were mixed on an orbital shaker for three minutes to induce lysis and incubated at ambient temperature for an additional five minutes to allow the signal to equilibrate. The Luminescence was read on the Wallac Plate Reader.
The results of the ability of the compounds of the invention to inhibit JAK2 activity, when tested in the above assay, are shown in the following Table IX wherein the level of activity (i.e. the IC50) for each compound is indicated in Table IX. Thae compound numbers in Table IX Refers to the compound disclosed herein as being preparded hy the methods disclosed herein: […]
On the technique in general: In ATP-based viability assays light output follows the ATP content of the culture.

Broadly, the IC50 is the concentration that inhibits the measured activity by half. In the case of `Cc1cnc(Nc2cccc(C#N)c2)nc1Nc1ccc2c(c1)N(C)C(=O)CS2` [II-7, N2-(3-Cyanophenyl)-5-methyl-N4-(4-methyl-3-oxo-2H-benzo[1,4]thiazin-6-yl)-2,4-pyrimidinediamine], the IC50 in assay [1] (Homo sapiens, Ramos) amounted to 116 nM; in assay [2], 1430 nM.

In the case of `Cc1cnc(Nc2cccc(C#N)c2)nc1Nc1ccc2c(c1)N(C)C(=O)CO2` [II-10, N2-(3-Cyanophenyl)-5-methyl-N4-(4-methyl-3-oxo-2H-benzo[1,4]oxazin-6-yl)-2,4-pyrimidinediamine], the IC50 turned out to be 116 nM in assay [1] (Homo sapiens, Ramos) and 980 nM in assay [2].

Regarding `CNC(=O)COc1cccc(Nc2ncc(C)c(Nc3ccc4c(c3)N(C)C(=O)C(F)(F)O4)n2)c1` [II-37, N4-(2,2-Difluoro-4-methyl-3-oxo-4H-benzo[1,4]oxazin-6-yl)-5-methyl-N2-[3-(N-methylaminocarbonylmethyleneoxy)phenyl]-2,4-pyrimidinediamine], the IC50 was found to be 80.2 nM in assay [1] and 492 nM in assay [2].

In the case of “N2-(3-Aminocabonylphenyl)-N4-(3,4-dihydro-2H-4-methyl-3-oxo-5-pyrido[1,4]oxazin-6-yl)-2,4-pyrimidinediamine [II-42]”, the IC50 in assay [1] came to 180 nM; in assay [2] it was 1640 nM.

Regarding `CNC(=O)COc1cccc(Nc2ncc(C)c(Nc3ccc4c(c3)N(C)C(=O)CS4)n2)c1` [II-8, 5-Methyl-N2-[3-(N-methylaminocarbonylmethyleneoxy)phenyl]-N4-(4-methyl-3-oxo-2H-benzo[1,4]thiazin-6-yl)-2,4-pyrimidinediamine], the results for the IC50 in assay [1] and in assay [2] were 56.4 nM and 223 nM, respectively.

Take `Cc1cnc(Nc2cccc(C(N)=O)c2)nc1Nc1ccc2c(c1)N(C)C(=O)CS2` [II-41, N2-(3-Aminocarbonylphenyl)-N4-(3,4-dihydro-2H-4-methyl-3-oxo-benz[1,4]thiazin-6-yl)-5-methyl-2,4-pyrimidinediamine]: the IC50 in assay [1] came out at 129 nM; in assay [2], 2070 nM.

Turning to `N#CCOc1cccc(Nc2nc(Nc3ccc(C(N)=O)cc3)ncc2F)c1` [Compound I-44, N2-(4-Aminocarbonylphenyl)-N4-(3-cyanomethoxyphenyl)-5-fluoro-2,4-pyrimidinediamine], the IC50 in assay [1] (Homo sapiens, Ramos) came to 21.7 nM; in assay [2] it was 567 nM.

As for `CNC(=O)COc1cc(Nc2ncc(F)c(Nc3ccc4c(c3)NC(=O)C(C)(C)S4)n2)cc(OC)c1OC` [II-17, N2-[4,5-Dimethoxy-3-(N-methylaminocarbonylmethyleneoxy)phenyl]-N4-(2,2-dimethyl-3-oxo-4H-benzo[1,4]thiazin-6-yl)-5-fluoro-2,4-pyrimidinediamine], the values for the IC50 in assay [1] and in assay [2] were 57.3 nM and 160 nM, respectively.

Regarding `CN1CCN(C(=O)c2ccc(Nc3ncc(F)c(Nc4ccc(OCC#N)cc4)n3)cc2)CC1` [Compound I-31, N4-(4-Cyanomethoxyphenyl)-5-fluoro-N2-[4-((4-methylpiperazin-1-yl)carbonyl)phenyl]-2,4-pyrimidinediamine], the IC50 is 62.3 nM in assay [1] (Homo sapiens, Ramos) and 1260 nM in assay [2].

For `CNC(=O)COc1cc(Nc2ncc(F)c(Nc3ccc4c(n3)NCC(C)(C)O4)n2)cc(OC)c1OC` [II-33, N4-(3,4-Dihydro-2,2-dimethyl-4H-5-pyrido[1,4]oxazin-6-yl)-N2-[3,4-dimethoxy-5-(N-methylaminocarbonylmethoxy)phenyl]-5-fluoro-2,4-pyrimidinediamine], the IC50 in assay [1] worked out at 75.2 nM; in assay [2] it was 489 nM.
